Values quoted from earlier work as cited in US20220273590A1, “COMPOUNDS FOR PREVENTION AND TREATMENT OF POST-OPERATIVE COGNITIVE DYSFUNCTION” (ABREXA PHARMACEUTICALS, INC., priority 2019, published 2022).

Conditions: cited from earlier work

Cc1cccc([C@H](C)c2cnc[nH]2)c1C [Dexmedetomidine]
efficacy for POCD (Skvarc et al. (2018)): failed to show efficacy

[Mg+2] [Magnesium]
reduction of POCD (administered intravenously during cardiac surgery, clinical trial NCT00041392): failed to reduce POCD

CCN(C)C(=O)Oc1cccc([C@H](C)N(C)C)c1 [Rivastigmine]
efficacy for the treatment of POCD (clinical investigation NCT00835159, at termination): no efficacy was observed | safety in the treatment of POCD (seriously ill patients after surgery, clinical investigation NCT00835159 terminated): too dangerous
